We go through 17 compounds from patent US6809064B2, “Synergistic herbicidal compositions comprising herbicides from the benzoylcyclohexanedione group for use in rice crops” (Aventis CropScience GmbH, priority 2001, dated 2004).

Where two headings read alike, the source gives them in different places.

One assay deals with SCPJU. Briefly: Post-emergence herbicidal action, submerged application. Format: in vivo, Scirpus juncoides. The conditions noted are these: for pest or weed control at 15 g/ha: dosage 15 g ai/ha. The method, then: (§1) The herbicidal efficacy of the active ingredients or active ingredient mixtures was scored visually by comparing the treated variants with untreated control variants. The damage and development of all aerial plant parts was recorded. Scoring was done on a percentage scale (100% action=all plants dead; 50% action=50% of the plants and green plant parts dead; 0% action=no discernible action=like untreated control plot).
(§2) Seeds or root segments of monocotyledonous and dicotyledonous weeds are placed in sandy loam in pots, covered with soil and grown in the greenhouse under good growth conditions (temperature, atmospheric humidity, water supply). Approximately three weeks after planting, the experimental plants are treated with the compositions according to the invention. In the case of spray application, the compositions according to the invention, which are formulated as wettable powders or emulsion concentrates, are sprayed onto the green plant parts in various dosages with an application rate of 600 to 800 l of water per ha (converted). Immediately to a few days after the application, the test containers are flooded with water up to a depth of 30 mm above the soil surface. In the case of submerged application, in contrast, the soil in the closed test container is already covered with paddy water up to a depth of 30 mm at the time of application. Here, the formulated active ingredients are added directly to the paddy water. After the experimental plants have remained in the greenhouse under optimal growth conditions for a further 3 to 4 weeks, the effect of the preparations is scored visually in comparison with untreated controls. The compositions according to the invention also have an outstanding herbicidal action against a broad spectrum of economically important grass weeds and broad-leaved weeds when applied post-emergence. Frequently, effects of the combinations according to the invention are observed which exceed the formal total of the effects when the herbicides are applied individually. When using suitable low dosages, the values observed in the experiments show an effect of the combinations which exceed the expected values calculated using Colby's formula.
(§3) When applying the combinations according to the invention, herbicidal effects are frequently observed on a harmful plant species which exceed the formal total of the effects of the herbicides present when these are applied by themselves. Alternatively, it is observed in some cases that a lower application rate is required for the herbicide combination in order to achieve the same effect on a harmful plant species in comparison with the individual products.
(§4) A, B=action of component A or B in percent at a dosage of a and b grams of ai/ha, respectively, and
(§5) E=expected value in % at a dosage of a+b grams of ai/ha.
(§6) Examples B.I to B.XVII have been conducted according to method B.2 (post-emergence herbicidal action) as mentioned above, wherein spray application has been applied in case of examples B.I to B.V. Submerged application has been applied in case of examples B.VI bis B.XVII.

A further assay concerns SAGPY. Described as above. In kind it is in vivo, Sagittaria pygmaea. The method, then:
as §1, §2, §3, §4, §5, §6

The test system of the next assay is SEBEX. Briefly: Post-emergence herbicidal action, spray application. In kind it is in vivo, Sesbania exaltata. The method, then: as §1
as §2, with “Frequently, effects of the combinations according to the invention are observed which exceed the formal total of the effects when the herbicides are applied individually.” left out, “formula. […]” for “formula.”

In a further assay the test system is ECHCG. Described as above. In kind it is in vivo, Echinochloa crus galli. The method, then: as §1, §2, §3
A, B=action of component A or B in percent at a dosage of a and b grams of ai/ha, respectively, and […]

The subject of a further assay is CYPSE. As to the kind of experiment: Post-emergence herbicidal action, submerged application. Format: in vivo, Cyperus serotinus. As to conditions: Example B.X, dosage 750 g ai/ha. The method, then:
as §1
(§7) Seeds or root segments of monocotyledonous and dicotyledonous weeds are placed in sandy loam in pots, covered with soil and grown in the greenhouse under good growth conditions (temperature, atmospheric humidity, water supply). Approximately three weeks after planting, the experimental plants are treated with the compositions according to the invention. […] After the experimental plants have remained in the greenhouse under optimal growth conditions for a further 3 to 4 weeks, the effect of the preparations is scored visually in comparison with untreated controls. […] When using suitable low dosages, the values observed in the experiments show an effect of the combinations which exceed the expected values calculated using Colby's formula. […]

For a further assay, the system named is CHEAL. As to the kind of experiment: Post-emergence herbicidal action, spray application. As to conditions: Example B.I, dosage 10 g ai/ha. Format: in vivo, Chenopodium album. The method, then: as §1, §7
The subject of another assay is ECHOR. As to the kind of experiment: Post-emergence herbicidal action, submerged application. Format: in vivo. As to conditions: Example B.XIV, dosage 18.75 g ai/ha. The method, then: as §1, §7
The test system of the next assay is CYPES. As to the kind of experiment: Post-emergence herbicidal action, spray application. Format: in vivo. The conditions noted are these: Example B.IV, dosage 20 g ai/ha. The method, then: as §1, §7
The mark [1] stands for this setting: Example B.II, dosage 100 g ai/ha.
The mark [2] stands for this setting: Example B.VI, submerged application, dosage 75 g ai/ha.
Where [3] appears, read: Schoenoplectiella juncoides, read-out: SCPJU found.
[4] abbreviates: Sagittaria pygmaea, read-out: SAGPY found.
The mark [5] stands for this setting: Example B.III, dosage 100 g ai/ha.
Where [6] appears, read: Example B.V, dosage 500 g ai/ha.

Turning to `Cc1ccccc1CO[C@@H]1C[C@@]2(C(C)C)CC[C@]1(C)O2` (racemic) [Compound B7.1, cinmethylin], in the assay with SCPJU (Schoenoplectiella juncoides, Example B.IX, submerged application, read-out: SCPJU found), the pest or weed control at 15 g/ha is 0%. For the same compound, the pest or weed control at 30 g/ha with SAGPY (Sagittaria pygmaea, Example B.IX, submerged application, dosage 30 g ai/ha, read-out: SAGPY found) came out at 0%.

Regarding `O=C(O)COc1ccc(Cl)cc1Cl` [Compound B1.1, 2,4-D], the SEBEX found with SEBEX (setting [1]) stood at 45%. Moreover, the ECHCG found in the assay with ECHCG (setting [1]) is 50%.

As to `CS(=O)(=O)c1ccc(C(=O)C2=C(Sc3ccccc3)C3CCC(C3)C2=O)c(Cl)c1` (stereo not drawn) [Compound B2.1, benzobicyclon], the SCPJU found in the assay with SCPJU (setting [2]) was found to be 30%. In the assay with SAGPY (setting [2]), the SAGPY found worked out at 0%.

Take `Cc1ccc(C(=O)COc2c(C(=O)c3ccc(Cl)c(C)c3Cl)c(C)nn2C)cc1` [Compound B3.1, benzofenap]: in the assay with SCPJU (Schoenoplectiella juncoides, Example B.VII, submerged application, dosage 300 g ai/ha, read-out: SCPJU found), the pest or weed control at 300 g/ha was determined as 0%. In addition, the pest or weed control at 75 g/ha in the assay on SAGPY (Sagittaria pygmaea, Example B.VII, submerged application, dosage 75 g ai/ha, read-out: SAGPY found) was 0%.

On to `CC(C)Oc1cc(-n2nc(C(C)(C)C)oc2=O)c(Cl)cc1Cl` [Compound B4.2, oxadiazon], for which the pest or weed control at 22 g/ha in the assay with SCPJU (Schoenoplectiella juncoides, Example B.XV, submerged application, dosage 22 g ai/ha, read-out: SCPJU found) came to 10%. In addition, the pest or weed control at 175 g/ha with SAGPY (Sagittaria pygmaea, Example B.XV, submerged application, dosage 175 g ai/ha, read-out: SAGPY found) worked out at 0%.

As for `CCN(CC)C(=O)n1cnc(S(=O)(=O)c2c(C)cc(C)cc2C)n1` [Compound B5.1, cafenstrole], in the assay on SCPJU (setting [3]), the pest or weed control at 75 g/ha turned out to be 0%. The pest or weed control at 150 g/ha in the assay with SAGPY (setting [4]) amounted to 0%.

Turning to `Cc1ccc(NC(=O)NC(C)(C)c2ccccc2)cc1` [Compound B5.2, daimuron], the pest or weed control at 375 g/ha with SAGPY (Sagittaria pygmaea, Example B.X, submerged application, dosage 375 g ai/ha, read-out: SAGPY found) stood at 0%. Also, the CYPSE found with CYPSE stood at 0%.

As for `CSC(=O)c1c(C(F)F)nc(C(F)(F)F)c(C(=O)SC)c1CC(C)C` [Compound B5.3, dithiopyr], the pest or weed control at 15 g/ha in the assay with SCPJU (Schoenoplectiella juncoides, Example B.XI, submerged application, read-out: SCPJU found) was 0%; with SAGPY (Sagittaria pygmaea, Example B.XI, submerged application, dosage 15 g ai/ha, read-out: SAGPY found), 0%.

In the case of `CCN(C(=O)n1nnn(-c2ccccc2Cl)c1=O)C1CCCCC1` [Compound B5.4, fentrazamide], in the assay on SCPJU (Schoenoplectiella juncoides, Example B.XIII, submerged application, dosage 75 g ai/ha, read-out: SCPJU found), the pest or weed control at 75 g/ha stood at 0%. In addition, in the assay with SAGPY (Sagittaria pygmaea, Example B.XIII, submerged application, dosage 37.5 g ai/ha, read-out: SAGPY found), the pest or weed control at 37.5 g/ha stood at 0%.

Turning to `CCOC(=O)c1cnn(C)c1S(=O)(=O)NC(=O)Nc1nc(OC)cc(OC)n1` [Compound B6.2, pyrazosulfuron-ethyl], in the assay with CHEAL, the CHEAL found was determined as 10%.

For `CO/N=C(/C)c1cccc(Oc2nc(OC)cc(OC)n2)c1C(=O)OC` [Compound B6.3, pyriminobac-methyl], the pest or weed control at 7.5 g/ha in the assay on SCPJU (setting [3]) and with SAGPY (setting [4]) was 0% each time.

Turning to `CCNc1nc(NC(C)C(C)C)nc(SC)n1` (stereo not drawn) [Compound B8.1, dimethametryn], the SEBEX found with SEBEX (setting [5]) came out at 50%. Moreover, the ECHCG found with ECHCG (setting [5]) was determined as 25%.

As to `CCOCOc1ccc(C(=O)Nc2cccc(Cl)c2Cl)cc1` [Compound B9.1, etobenzamide], in the assay on SCPJU (Example B.XII, submerged application, dosage 375 g ai/ha), the SCPJU found is recorded as 0%. The SAGPY found in the assay on SAGPY (Example B.XII, submerged application, dosage 187 g ai/ha) came out at 0%.

As to `CCC1(CC2(c3cccc(Cl)c3)CO2)C(=O)c2ccccc2C1=O` (stereo not drawn) [Compound B10.1, indanofan], the pest or weed control at 37.5 g/ha in the assay on SCPJU (Schoenoplectiella juncoides, Example B.XIV, submerged application, dosage 37.5 g ai/ha, read-out: SCPJU found) came out at 20%. In the assay with ECHOR, the ECHOR found amounted to 50%.

Turning to `COc1cc(OC)nc(Sc2cccc3c2C(=O)OC3C)n1` (stereo not drawn) [Compound B12.1, pyriftalide], in the assay with SCPJU (Schoenoplectiella juncoides, Example B.XVI, submerged application, dosage 100 g ai/ha, read-out: SCPJU found), the pest or weed control at 100 g/ha was 0%. For the same compound, in the assay with SAGPY (Sagittaria pygmaea, Example B.XVI, submerged application, dosage 50 g ai/ha, read-out: SAGPY found), the pest or weed control at 50 g/ha is 0%.

In the case of `CCCC(=NOCC(C)Oc1ccc(Cl)cc1)C1=C(O)CC(C2CCCSC2)CC1=O` (stereo not drawn) [Compound B13.1, profoxydim], the CYPES found with CYPES was found to be 0%. In addition, the ECHCG found in the assay on ECHCG (Example B.IV, dosage 20 g ai/ha) came out at 30%.

Consider `NC1=C(Cl)C(=O)c2ccccc2C1=O` [Compound B14.1, quinoclamine], for which the SEBEX found with SEBEX (setting [6]) worked out at 0%. Moreover, the ECHCG found with ECHCG (setting [6]) amounted to 0%.
